Results as given in ChEMBL document CHEMBL4052767, “Discovery of a potent angiotensin converting enzyme inhibitor via virtual screening” (Bioorg Med Chem Lett, 2017).

Target: Angiotensin-converting enzyme (Homo sapiens) (UniProt P12821)
Assay: Inhibition of recombinant human ACE at 100 uM using Mca-R-P-PG-F-S-A-F-K(Dnp)-OH as substrate measured every 2 mins for 8 mins by fluorescence assay

Chain of Angiotensin-converting enzyme (Homo sapiens) (P12821 whole entry): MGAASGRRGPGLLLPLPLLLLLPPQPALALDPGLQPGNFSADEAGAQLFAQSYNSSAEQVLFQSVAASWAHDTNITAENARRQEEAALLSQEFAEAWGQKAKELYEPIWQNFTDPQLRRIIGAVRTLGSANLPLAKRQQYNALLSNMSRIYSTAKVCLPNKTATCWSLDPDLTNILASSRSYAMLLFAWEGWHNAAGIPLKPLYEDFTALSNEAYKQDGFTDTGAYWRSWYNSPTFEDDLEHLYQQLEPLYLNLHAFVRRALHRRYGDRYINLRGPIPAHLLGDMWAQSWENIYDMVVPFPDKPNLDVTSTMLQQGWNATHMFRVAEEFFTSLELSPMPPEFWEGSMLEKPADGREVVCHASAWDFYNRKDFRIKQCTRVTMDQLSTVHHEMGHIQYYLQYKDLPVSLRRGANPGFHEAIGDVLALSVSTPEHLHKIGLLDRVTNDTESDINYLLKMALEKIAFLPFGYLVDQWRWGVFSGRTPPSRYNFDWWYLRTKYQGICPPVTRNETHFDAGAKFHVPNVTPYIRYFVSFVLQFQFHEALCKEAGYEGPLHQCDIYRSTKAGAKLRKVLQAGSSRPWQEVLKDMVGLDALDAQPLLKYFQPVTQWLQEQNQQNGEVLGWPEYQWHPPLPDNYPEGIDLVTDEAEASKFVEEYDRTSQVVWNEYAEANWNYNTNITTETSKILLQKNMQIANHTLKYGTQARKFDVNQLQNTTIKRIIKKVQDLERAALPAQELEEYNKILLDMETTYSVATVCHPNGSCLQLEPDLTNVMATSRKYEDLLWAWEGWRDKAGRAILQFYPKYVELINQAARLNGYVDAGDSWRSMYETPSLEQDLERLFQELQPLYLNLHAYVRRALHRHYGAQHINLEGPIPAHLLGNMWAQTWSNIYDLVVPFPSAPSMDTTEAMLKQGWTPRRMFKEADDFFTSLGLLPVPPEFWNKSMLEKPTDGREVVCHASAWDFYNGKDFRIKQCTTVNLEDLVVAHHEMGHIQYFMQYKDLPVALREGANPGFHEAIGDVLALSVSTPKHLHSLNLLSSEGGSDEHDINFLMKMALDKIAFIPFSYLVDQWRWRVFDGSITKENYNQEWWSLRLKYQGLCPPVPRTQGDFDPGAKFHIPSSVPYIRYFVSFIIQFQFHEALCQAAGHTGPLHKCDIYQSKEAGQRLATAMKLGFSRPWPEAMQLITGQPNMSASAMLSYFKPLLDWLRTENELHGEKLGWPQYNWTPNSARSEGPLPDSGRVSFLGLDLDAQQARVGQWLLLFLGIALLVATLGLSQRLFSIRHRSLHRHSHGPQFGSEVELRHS

Compound	inhibition
C[C@]1(O)C[C@@H](O)[C@]2(O)C=CO[C@@H](O[C@@H]3O[C@H](CO)[C@@H](O)[C@H](O)[C@H]3O)[C@@H]21	14.8%
COc1cc(O)ccc1/C=C/C(=O)c1ccc(O)cc1	72.5%
C[C@@H]1O[C@@H](Oc2cc(O)c3c(=O)c(O)c(-c4ccc(O)cc4)oc3c2O)[C@H](O)[C@H](O)[C@H]1O	17.2%
COc1cc(C=O)ccc1O	41.5%
C[C@@H]1CC[C@H]2[C@@H](C)C(=O)O[C@@H]3O[C@@]4(C)CC[C@@H]1[C@]32OO4	17.1%
COc1ccc(/C=C/c2cc(O)cc(O[C@@H]3O[C@H](CO)[C@@H](O)[C@H](O)[C@H]3O)c2)cc1O	18.2%
O=C(O[C@@H]1Cc2c(O)cc(O)cc2O[C@@H]1c1cc(O)c(O)c(O)c1)c1cc(O)c(O)c(O)c1	82%
CC[C@H]1CN2CC[C@]3(C(=O)Nc4ccccc43)[C@@H]2C[C@@H]1/C(=C\OC)C(=O)OC	10%
OC[C@H]1O[C@@H](Oc2cc(O)cc(/C=C/c3ccc(O)cc3)c2)[C@H](O)[C@@H](O)[C@@H]1O	8.9%
C=CC(C)(C)c1cc(/C=C/C(=O)c2ccc(O)cc2)c(OC)cc1O	111%
